We go through 20 compounds from patent publication US20120220581A1, “IMIDAZO[1,2-b]PYRIDAZINE DERIVATIVES AND THEIR USE AS PDE10 INHIBITORS” (Janssen-Cilag, S.A., priority 2009, published 2012).

Read-outs that look alike come from different tables or passages of the source.

The target in assay [1] is T1, Rat recombinant PDE10A (rPDE10A2) (Rattus norvegicus, UniProt Q9QYJ6).
T1 construct: inferred from the Ni metal chelate purification; made in house; host or cells: Sf9 insect cells (baculovirus)
T1 sequence (Q9QYJ6 1-794): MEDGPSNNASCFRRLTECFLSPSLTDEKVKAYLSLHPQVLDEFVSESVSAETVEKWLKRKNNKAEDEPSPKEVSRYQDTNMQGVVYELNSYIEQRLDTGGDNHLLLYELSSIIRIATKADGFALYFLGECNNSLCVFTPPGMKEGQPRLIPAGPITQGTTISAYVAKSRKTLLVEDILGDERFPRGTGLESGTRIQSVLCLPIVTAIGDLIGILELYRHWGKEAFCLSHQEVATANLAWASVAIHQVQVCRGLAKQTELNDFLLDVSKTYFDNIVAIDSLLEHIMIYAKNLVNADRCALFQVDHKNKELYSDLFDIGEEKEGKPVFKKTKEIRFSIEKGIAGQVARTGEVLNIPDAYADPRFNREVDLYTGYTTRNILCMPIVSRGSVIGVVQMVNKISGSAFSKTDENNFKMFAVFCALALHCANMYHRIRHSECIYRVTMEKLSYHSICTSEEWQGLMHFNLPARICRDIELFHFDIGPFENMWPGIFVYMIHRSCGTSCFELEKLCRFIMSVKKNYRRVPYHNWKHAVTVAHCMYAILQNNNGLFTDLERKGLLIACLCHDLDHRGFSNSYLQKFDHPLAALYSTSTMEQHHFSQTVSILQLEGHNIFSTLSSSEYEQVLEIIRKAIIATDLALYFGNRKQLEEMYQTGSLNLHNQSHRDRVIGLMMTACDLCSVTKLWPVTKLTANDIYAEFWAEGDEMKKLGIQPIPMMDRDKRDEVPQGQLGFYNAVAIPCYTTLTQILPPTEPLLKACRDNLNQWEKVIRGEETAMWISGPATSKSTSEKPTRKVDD
The experiment in a line: In vitro assay PDE10A (SPA, 3H-cAMP). In kind it is biochemical. In short, it runs like this:
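Rat PDE10A2 expressed in Sf9 cells and Ni-purified; incubated with 60 nM cAMP plus 0.008 μCi 3H-cAMP in 50 mM Tris pH 7.8, 8.3 mM MgCl2, 1.7 mM EGTA for 60 min at room temperature. Product quantified by scintillation proximity counting; final DMSO 1%.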

Assay [2] has as its target other members of the PDE family (Homo sapiens, UniProt O00408). The experiment in a line: In vitro PDE selectivity assay (SPA), other members of the PDE family (protocols in Table A). The format is biochemical. The following applies: hPDE2A; read-out: PDE 2A (expressed as pIC50) (converted). As for the experimental part: Rat recombinant PDE10A (rPDE10A2) was expressed in Sf9 cells using a recombinant rPDE10A baculovirus construct. Cells were harvested after 48 h of infection and the rPDE10A protein was purified by metal chelate chromatography on Ni-sepharose 6FF. Tested compounds were dissolved and diluted in 100% DMSO to a concentration 100 fold of the final concentration in the assay. Compound dilutions (0.4 μl) were added in 384 well plates to 20 μl of incubation buffer (50 mM Tris pH 7.8, 8.3 mM MgCl2, 1.7 mM EGTA). 10 μl of rPDE10A enzyme in incubation buffer was added and the reaction was started by addition of 10 μl substrate to a final concentration of 60 nM cAMP and 0.008 μCi ^3H-cAMP. The reaction was incubated for 60 minutes at room temperature. After incubation, the reaction was stopped with 20 μl of stop solution consisting of 17.8 mg/ml PDE SPA (scintillation proximity assay) beads. After sedimentation of the beads during 30 minutes the radioactivity was measured in a Perkin Elmer Topcount scintillation counter and results were expressed as cpm. For blanc values the enzyme was omitted from the reaction and replaced by incubation buffer. Control values were obtained by addition of a final concentration of 1% DMSO instead of compound. The same assay principle is applied for the measurement of the affinity of the compound for other members of the PDE family with appropriate modifications in incubation buffer, substrate concentration, incubation time and stop solution. An overview of the different protocols is presented in table A. A best fit curve is fitted by a minimum sum of squares method to the plot of % of control value substracted with blanc value versus compound concentration and the half maximal inhibitory concentration (IC50) value is derived from this curve.
The compounds of the invention are generally selective for PDE10 compared to other PDEs and there are a few that also have affinity for PDE1B1, 4D3 and 5A3.

The subject of assay [3] is apomorphine-induced stereotypy in rats. The experiment in a line: Apomorphine-induced stereotypy in rats (APO). The format is in vivo. The following applies: Rattus norvegicus, n.d.: found not active at threshold dose 2.5 mg/kg or 10 mg/kg (a). As for the experimental part: Apomorphine (1.0 mg/kg, i.v.)-induced stereotypy (compulsive sniffing, licking, chewing) was scored every 5 min over the first hour after injection of apomorphine, following a 1 hour interval pre-treatment with the test compound. The score system was: (3) pronounced, (2) moderate, (1) slight, and (0) absent.

The mark [4] stands for this setting: Table 4 in vitro selectivity, read-out: PDE 10A2 (expressed as pIC50) (converted).
[5] abbreviates: pIC50 corresponds to the −log IC50 expressed in mol/L, read-out: PDE10A2 pIC50 (converted).
The mark [6] stands for this setting: po, * not soluble, tested orally as a suspension.

Sequence of other members of the PDE family (O00408 whole entry): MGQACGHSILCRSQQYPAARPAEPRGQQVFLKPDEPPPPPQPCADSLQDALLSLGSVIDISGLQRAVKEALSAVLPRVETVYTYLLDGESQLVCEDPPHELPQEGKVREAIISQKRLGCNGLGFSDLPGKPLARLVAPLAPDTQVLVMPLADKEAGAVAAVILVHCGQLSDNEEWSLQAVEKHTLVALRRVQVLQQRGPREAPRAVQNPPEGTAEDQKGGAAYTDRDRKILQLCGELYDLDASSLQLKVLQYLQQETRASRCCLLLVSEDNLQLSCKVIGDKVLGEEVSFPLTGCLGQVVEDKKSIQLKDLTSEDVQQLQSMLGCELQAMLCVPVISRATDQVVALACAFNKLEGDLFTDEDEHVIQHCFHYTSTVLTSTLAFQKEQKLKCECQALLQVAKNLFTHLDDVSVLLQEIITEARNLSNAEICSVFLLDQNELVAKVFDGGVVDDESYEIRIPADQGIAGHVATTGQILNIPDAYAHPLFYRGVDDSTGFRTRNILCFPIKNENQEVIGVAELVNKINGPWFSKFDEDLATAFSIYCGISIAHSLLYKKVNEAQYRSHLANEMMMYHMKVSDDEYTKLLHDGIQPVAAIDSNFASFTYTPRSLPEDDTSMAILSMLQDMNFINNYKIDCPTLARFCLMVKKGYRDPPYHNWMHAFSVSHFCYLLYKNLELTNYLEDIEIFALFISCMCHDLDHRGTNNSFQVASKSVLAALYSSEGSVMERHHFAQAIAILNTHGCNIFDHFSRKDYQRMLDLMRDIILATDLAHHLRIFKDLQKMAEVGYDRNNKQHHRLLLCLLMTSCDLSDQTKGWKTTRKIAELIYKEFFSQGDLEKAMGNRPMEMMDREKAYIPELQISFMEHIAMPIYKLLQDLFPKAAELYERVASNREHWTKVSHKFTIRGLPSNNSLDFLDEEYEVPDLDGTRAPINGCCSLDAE

Take `COCCc1ccc(-c2cnc3c(-c4ccncc4)ccnn23)cn1` [compound 57, 3-[6-(2-methoxyethyl)-3-pyridinyl]-8-(4-pyridinyl)-imidazo[1,2-b]pyridazine]: the IC50 in assay [1] (setting [4]) is 0.427 µM; in assay [1] (setting [5]), 0.427 µM; in assay [2] it was more than 10 µM.
With `c1cc(N2CCOCC2)c2ncc(-c3ccc(N4CCOCC4)nc3)n2n1` [compound 144, 8-(4-morpholinyl)-3-[6-(4-morpholinyl)-3-pyridinyl]-imidazo[1,2-b]pyridazine], the IC50 is 0.324 µM in assay [1] (setting [4]), 0.324 µM in assay [1] (setting [5]) and more than 10 µM in assay [2].
Consider `Cc1cc(N2CCOCC2)c2nc(C3CC3)c(-c3ccc(N4CCOCC4)nc3)n2n1` [compound 75, 2-cyclopropyl-6-methyl-8-(4-morpholinyl)-3-[6-(4-morpholinyl)-3-pyridinyl]-imidazo[1,2-b]pyridazine], for which the IC50 in assay [1] (setting [4]) is 0.447 µM; in assay [1] (setting [5]) it was 0.447 µM; in assay [2], more than 10 µM.
As to `CCc1ccc(-c2c(C3CC3)nc3c(N4CCOCC4)cc(C)nn23)cn1` [compound 84, 2-cyclopropyl-3-(6-ethyl-3-pyridinyl)-6-methyl-8-(4-morpholinyl)-imidazo[1,2-b]pyridazine], the IC50 in assay [1] (setting [4]) was 0.372 µM; in assay [1] (setting [5]), 0.372 µM; in assay [2] it was more than 10 µM.
For the compound `COCCOc1ccc(-c2c(C3CC3)nc3c(N4CCOCC4)cc(C)nn23)cn1` [compound 74, 2-cyclopropyl-3-[6-(2-methoxyethoxy)-3-pyridinyl]-6-methyl-8-(4-morpholinyl)-imidazo[1,2-b]pyridazine], the IC50 in assay [1] (setting [4]) was 0.589 µM; in assay [1] (setting [5]), 0.589 µM; in assay [2] it was more than 10 µM.
In the case of `Cc1cc(N2CCOCC2)c2nc(C)c(-c3ccc(C4CC4)nc3)n2n1` [compound 110, 3-(6-cyclopropyl-3-pyridinyl)-2,6-dimethyl-8-(4-morpholinyl)-imidazo[1,2-b]pyridazine], the IC50 is 0.331 µM in assay [1] (setting [4]), 0.331 µM in assay [1] (setting [5]) and more than 10 µM in assay [2].
For the compound `COCCc1ccc(-c2c(C3CC3)nc3c(N4CCOCC4)cc(C(F)(F)F)nn23)cn1` [compound 85, 2-cyclopropyl-3-[6-(2-methoxyethyl)-3-pyridinyl]-8-(4-morpholinyl)-6-(trifluoromethyl)-imidazo[1,2-b]pyridazine], the IC50 is 0.661 µM in assay [1] (setting [4]), 0.661 µM in assay [1] (setting [5]) and more than 10 µM in assay [2].
Turning to `COCCn1cc(-c2c(C)nc3c(-c4ccncc4)cc(C(F)(F)F)nn23)cn1` [compound 129, 3-[1-(2-methoxyethyl)-1H-pyrazol-4-yl]-2-methyl-8-(4-pyridinyl)-6-(trifluoromethyl)-imidazo[1,2-b]pyridazine], the IC50 in assay [1] (setting [4]) was 2.63 µM; in assay [1] (setting [5]) it was 2.63 µM; in assay [2], more than 10 µM.
As for `Cc1cc(N2CCOCC2)c2nc(C3CC3)c(-c3ccc(N4CCNCC4)nc3)n2n1` [compound 100, 2-cyclopropyl-6-methyl-8-(4-morpholinyl)-3-[6-(1-piperazinyl)-3-pyridinyl]-imidazo[1,2-b]pyridazine], the IC50 was 0.724 µM in assay [1] (setting [4]), 0.724 µM in assay [1] (setting [5]) and more than 10 µM in assay [2].
Regarding `Cc1nc2c(N3CCOCC3)cc(C3CC3)nn2c1-c1ccc(C2CCOCC2)nc1` [compound 78, 6-cyclopropyl-2-methyl-8-(4-morpholinyl)-3-[6-(tetrahydro-2H-pyran-4-yl)-3-pyridinyl]-imidazo[1,2-b]pyridazine], the IC50 in assay [1] (setting [5]) was 0.123 µM. The same compound yielded a median effective dose (ED50) in assay [3] (not further tested) of more than 2.5 mg/kg.
`FC(F)(F)Cn1cc(-c2c(C3CC3)nc3c(-c4ccncc4)ccnn23)cn1` [compound 141, 2-cyclopropyl-8-(4-pyridinyl)-3-[1-(2,2,2-trifluoroethyl)-1H-pyrazol-4-yl]-imidazo[1,2-b]pyridazine]: the IC50 in assay [1] (setting [5]) is 0.01 µM. In assay [3] (setting [6]), the median effective dose (ED50) is more than 2.5 mg/kg.
Regarding `COCCn1cc(-c2c(C)nc3c(-c4ccncc4)cc(C4CC4)nn23)cn1` [compound 126, 6-cyclopropyl-3-[1-(2-methoxyethyl)-1H-pyrazol-4-yl]-2-methyl-8-(4-pyridinyl)-imidazo[1,2-b]pyridazine], the IC50 in assay [1] (setting [5]) is 0.0501 µM. Besides, the ED50 in assay [3] (not further tested) was more than 2.5 mg/kg.
With `COCCOc1cncc(-c2c(C)nc3c(N4CCOCC4)cc(C4CC4)nn23)c1` [compound 42, 6-cyclopropyl-3-[5-(2-methoxyethoxy)-3-pyridinyl]-2-methyl-8-(4-morpholinyl)-imidazo[1,2-b]pyridazine], the IC50 in assay [1] (setting [5]) is 0.0933 µM. The compound further displayed an ED50 in assay [3] (not further tested) of more than 2.5 mg/kg.
For `c1cc(N2CCOCC2)c2nc(C3CC3)c(-c3ccc(N4CCNCC4)nc3)n2n1` [compound 98, 2-cyclopropyl-8-(4-morpholinyl)-3-[6-(1-piperazinyl)-3-pyridinyl]-imidazo[1,2-b]pyridazine], in that order: 0.11 µM and more than 2.5 mg/kg.
In the same order, the values of `Cc1nc2c(N3CCOCC3)ccnn2c1-c1ccc(C2CCOCC2)nc1` [compound 27, 2-methyl-8-(4-morpholinyl)-3-[6-(tetrahydro-2H-pyran-4-yl)-3-pyridinyl]-imidazo[1,2-b]pyridazine] are 0.0316 µM and more than 2.5 mg/kg.
With `Cc1nc2c(N3CCOCC3)ccnn2c1-c1cnn(Cc2cccnc2)c1` [compound 115, 2-methyl-8-(4-morpholinyl)-3-[1-(3-pyridinylmethyl)-1H-pyrazol-4-yl]-imidazo[1,2-b]pyridazine], the IC50 in assay [1] (setting [5]) was 0.0355 µM. Further, the ED50 in assay [3] (setting [6]) is more than 10 mg/kg.
On to `COCCn1cc(-c2c(C3CC3)nc3c(N4CCOCC4)ccnn23)cn1` [compound 119, 2-cyclopropyl-3-[1-(2-methoxyethyl)-1H-pyrazol-4-yl]-8-(4-morpholinyl)-imidazo[1,2-b]pyridazine], for which the IC50 in assay [1] (setting [5]) is 0.0617 µM. In addition, the ED50 in assay [3] (setting [6]) is more than 10 mg/kg.
Turning to `CCc1ccc(-c2c(C)nc3c(-c4ccncc4)ccnn23)cn1` [compound 83, 3-(6-ethyl-3-pyridinyl)-2-methyl-8-(4-pyridinyl)-imidazo[1,2-b]pyridazine], in assay [1] (setting [5]), the IC50 is 0.0513 µM. Moreover, the median effective dose (ED50) in assay [3] (not further tested) was more than 2.5 mg/kg.
On to `CCc1ccc(-c2c(C)nc3c(N4CCOCC4)cc(C)nn23)cn1` [compound 108, 3-(6-ethyl-3-pyridinyl)-2,6-dimethyl-8-(4-morpholinyl)-imidazo[1,2-b]pyridazine], for which the IC50 in assay [1] (setting [5]) was 0.155 µM. Moreover, the ED50 in assay [3] (not further tested) is more than 2.5 mg/kg.
For `COC(C)(C)c1ccc(-c2c(C)nc3c(N4CCOCC4)ccnn23)cn1` [compound 6, 3-[6-(1-methoxy-1-methylethyl)-3-pyridinyl]-2-methyl-8-(4-morpholinyl)-imidazo[1,2-b]pyridazine], the IC50 in assay [1] (setting [5]) is 0.0234 µM. The same compound returned a median effective dose (ED50) in assay [3] (not further tested) of more than 2.5 mg/kg.

One may read the ED50 as the midpoint of the dose-response relation. A high value points to a need for a large dose.
